According to ChEMBL document CHEMBL4177611, “Discovery of aminocyclohexene analogues as selective and orally bioavailable hNav1.7 inhibitors for analgesia” (Bioorg Med Chem Lett, 2017):

How the values were obtained:
[1] = Volume of distribution at steady state in Sprague-Dawley rat at 3 mg/kg administered as single iv bolus by LC-MS/MS analysis; format: ADME, organism-based; conditions: in vivo, read-out: Vdss
[2] = biological target: Sodium channel protein type 9 subunit alpha (Homo sapiens, UniProt Q15858); assay: Inhibition of human Nav1.7 expressed in CHO-K1 cells at -120 mV holding potential incubated over 5 mins measured at 15 secs interval by Qpatch clamp assay; format: cell-based
Sequence of Sodium channel protein type 9 subunit alpha (Q15858 whole entry): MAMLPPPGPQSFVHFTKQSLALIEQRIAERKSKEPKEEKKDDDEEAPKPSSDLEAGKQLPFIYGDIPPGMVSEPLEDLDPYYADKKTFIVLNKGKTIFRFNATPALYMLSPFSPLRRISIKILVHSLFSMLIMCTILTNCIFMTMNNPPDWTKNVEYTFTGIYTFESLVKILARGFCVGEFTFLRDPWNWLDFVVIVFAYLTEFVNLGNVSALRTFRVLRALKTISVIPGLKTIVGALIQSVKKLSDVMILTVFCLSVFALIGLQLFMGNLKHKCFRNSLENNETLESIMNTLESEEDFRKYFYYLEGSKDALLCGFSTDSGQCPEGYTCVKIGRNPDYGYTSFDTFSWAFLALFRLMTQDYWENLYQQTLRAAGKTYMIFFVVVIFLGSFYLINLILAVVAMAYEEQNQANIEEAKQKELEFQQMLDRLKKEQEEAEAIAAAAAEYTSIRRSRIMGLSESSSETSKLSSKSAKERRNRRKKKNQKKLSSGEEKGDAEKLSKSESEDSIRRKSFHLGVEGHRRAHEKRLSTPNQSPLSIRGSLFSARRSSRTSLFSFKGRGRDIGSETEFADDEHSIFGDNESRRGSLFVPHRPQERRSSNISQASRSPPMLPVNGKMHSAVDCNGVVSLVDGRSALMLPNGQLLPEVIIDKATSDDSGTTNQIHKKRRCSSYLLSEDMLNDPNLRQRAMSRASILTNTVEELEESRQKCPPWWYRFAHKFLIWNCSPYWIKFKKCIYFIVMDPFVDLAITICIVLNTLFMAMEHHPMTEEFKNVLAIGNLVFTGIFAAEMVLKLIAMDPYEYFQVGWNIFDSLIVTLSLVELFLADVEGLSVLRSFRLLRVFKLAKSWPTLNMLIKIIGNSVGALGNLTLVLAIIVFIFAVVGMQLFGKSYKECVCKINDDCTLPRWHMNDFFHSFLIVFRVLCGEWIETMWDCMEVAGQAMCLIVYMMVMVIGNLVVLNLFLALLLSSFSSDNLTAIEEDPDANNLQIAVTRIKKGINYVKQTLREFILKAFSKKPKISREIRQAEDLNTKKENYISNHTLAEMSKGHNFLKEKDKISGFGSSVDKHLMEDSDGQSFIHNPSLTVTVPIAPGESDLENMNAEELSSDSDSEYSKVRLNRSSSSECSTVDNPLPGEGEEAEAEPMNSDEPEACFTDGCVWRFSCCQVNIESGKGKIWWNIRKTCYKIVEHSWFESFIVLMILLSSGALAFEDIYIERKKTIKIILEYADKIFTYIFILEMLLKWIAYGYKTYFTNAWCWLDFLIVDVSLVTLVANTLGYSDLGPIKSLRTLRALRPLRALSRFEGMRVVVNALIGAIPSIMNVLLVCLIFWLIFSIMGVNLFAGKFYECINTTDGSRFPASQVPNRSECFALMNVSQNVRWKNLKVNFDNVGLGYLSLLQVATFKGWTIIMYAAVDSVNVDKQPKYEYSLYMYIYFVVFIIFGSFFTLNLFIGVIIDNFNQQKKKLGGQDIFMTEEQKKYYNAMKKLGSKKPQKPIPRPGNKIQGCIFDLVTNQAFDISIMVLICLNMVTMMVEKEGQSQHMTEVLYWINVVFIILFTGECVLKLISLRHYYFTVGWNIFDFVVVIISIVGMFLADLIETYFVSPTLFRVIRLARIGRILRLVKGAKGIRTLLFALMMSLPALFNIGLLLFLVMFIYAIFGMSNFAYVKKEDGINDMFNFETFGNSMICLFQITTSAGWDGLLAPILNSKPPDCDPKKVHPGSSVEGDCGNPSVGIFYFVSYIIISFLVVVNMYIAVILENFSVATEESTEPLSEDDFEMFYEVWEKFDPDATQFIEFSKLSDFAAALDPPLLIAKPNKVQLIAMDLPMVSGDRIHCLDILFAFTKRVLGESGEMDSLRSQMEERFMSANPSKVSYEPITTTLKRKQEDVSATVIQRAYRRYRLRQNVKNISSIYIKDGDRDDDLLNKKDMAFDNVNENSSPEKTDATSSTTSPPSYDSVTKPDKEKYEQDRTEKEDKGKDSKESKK

[3] = Clearance in Sprague-Dawley rat administered as single iv bolus by LC-MS/MS analysis; format: ADME, organism-based; conditions: in vivo
[4] = Volume of distribution at steady state in Sprague-Dawley rat administered as single iv bolus by LC-MS/MS analysis; format: ADME, organism-based; conditions: in vivo, read-out: Vdss
[5] = AUC in Sprague-Dawley rat at 10 mg/kg administered as single dose via oral gavage by LC-MS/MS analysis; format: ADME, organism-based; conditions: in vivo
[6] = Initial plasma concentration in Sprague-Dawley rat at 3 mg/kg administered as single iv bolus by LC-MS/MS analysis; format: ADME, organism-based
[7] = Half life in Sprague-Dawley rat at 3 mg/kg administered as single iv bolus by LC-MS/MS analysis; format: ADME, organism-based; conditions: in vivo
[8] = Clearance in Sprague-Dawley rat at 3 mg/kg administered as single iv bolus by LC-MS/MS analysis; format: ADME, organism-based; conditions: in vivo
[9] = AUC (0 to last) in Sprague-Dawley rat at 3 mg/kg administered as single iv bolus by LC-MS/MS analysis; format: ADME, organism-based; parameters: dose 3 mg/kg, route intravenous, time 0 - last; conditions: in vivo
[10] = Cmax in Sprague-Dawley rat at 10 mg/kg administered as single dose via oral gavage by LC-MS/MS analysis; format: ADME, organism-based; parameters: dose 10 mg/kg, route oral; conditions: in vivo
[11] = Tmax in Sprague-Dawley rat at 10 mg/kg administered as single dose via oral gavage by LC-MS/MS analysis; format: ADME, organism-based; conditions: in vivo
[12] = Half life in Sprague-Dawley rat at 10 mg/kg administered as single dose via oral gavage by LC-MS/MS analysis; format: ADME, organism-based; conditions: in vivo
[13] = AUC (0 to last) in Sprague-Dawley rat at 10 mg/kg administered as single dose via oral gavage by LC-MS/MS analysis; format: ADME, organism-based; parameters: dose 10 mg/kg, route oral, time 0 - last; conditions: in vivo
[14] = Metabolic stability in rat liver microsomes assessed as parent compound remaining at 10 uM measured up to 60 mins in presence of NADPH by LC-MS analysis; format: ADME, microsome; conditions: read-out: Stability
[15] = Metabolic stability in dog liver microsomes assessed as parent compound remaining at 10 uM measured up to 60 mins in presence of NADPH by LC-MS analysis; format: ADME, Canis lupus familiaris, microsome; conditions: read-out: Stability
[16] = Drug metabolism in human liver microsomes assessed as dealkylation by measuring M1 metabolite formation at 10 uM measured up to 60 mins in presence of NADPH by LC-MS analysis relative to total metabolite peak area; format: ADME, microsome; conditions: 1 h
[17] = Drug metabolism in human liver microsomes assessed as oxygenation by measuring M3 metabolite formation at 10 uM measured up to 60 mins in presence of NADPH by LC-MS analysis relative to total metabolite peak area; format: ADME, microsome; conditions: 1 h
[18] = Metabolic stability in human liver microsomes assessed as parent compound remaining at 10 uM measured up to 60 mins in presence of NADPH by LC-MS analysis; format: ADME, microsome; conditions: read-out: Stability
[19] = Dissociation constant, pKa of the compound; format: physicochemical
[20] = biological target: Sodium channel protein type 5 subunit alpha (Homo sapiens, UniProt Q14524); assay: Inhibition of human Nav1.5 expressed in HEK293 cells at -120 mV holding potential incubated over 5 mins measured at 15 secs interval by Qpatch clamp assay; format: cell-based
Sequence of Sodium channel protein type 5 subunit alpha (Q14524 whole entry): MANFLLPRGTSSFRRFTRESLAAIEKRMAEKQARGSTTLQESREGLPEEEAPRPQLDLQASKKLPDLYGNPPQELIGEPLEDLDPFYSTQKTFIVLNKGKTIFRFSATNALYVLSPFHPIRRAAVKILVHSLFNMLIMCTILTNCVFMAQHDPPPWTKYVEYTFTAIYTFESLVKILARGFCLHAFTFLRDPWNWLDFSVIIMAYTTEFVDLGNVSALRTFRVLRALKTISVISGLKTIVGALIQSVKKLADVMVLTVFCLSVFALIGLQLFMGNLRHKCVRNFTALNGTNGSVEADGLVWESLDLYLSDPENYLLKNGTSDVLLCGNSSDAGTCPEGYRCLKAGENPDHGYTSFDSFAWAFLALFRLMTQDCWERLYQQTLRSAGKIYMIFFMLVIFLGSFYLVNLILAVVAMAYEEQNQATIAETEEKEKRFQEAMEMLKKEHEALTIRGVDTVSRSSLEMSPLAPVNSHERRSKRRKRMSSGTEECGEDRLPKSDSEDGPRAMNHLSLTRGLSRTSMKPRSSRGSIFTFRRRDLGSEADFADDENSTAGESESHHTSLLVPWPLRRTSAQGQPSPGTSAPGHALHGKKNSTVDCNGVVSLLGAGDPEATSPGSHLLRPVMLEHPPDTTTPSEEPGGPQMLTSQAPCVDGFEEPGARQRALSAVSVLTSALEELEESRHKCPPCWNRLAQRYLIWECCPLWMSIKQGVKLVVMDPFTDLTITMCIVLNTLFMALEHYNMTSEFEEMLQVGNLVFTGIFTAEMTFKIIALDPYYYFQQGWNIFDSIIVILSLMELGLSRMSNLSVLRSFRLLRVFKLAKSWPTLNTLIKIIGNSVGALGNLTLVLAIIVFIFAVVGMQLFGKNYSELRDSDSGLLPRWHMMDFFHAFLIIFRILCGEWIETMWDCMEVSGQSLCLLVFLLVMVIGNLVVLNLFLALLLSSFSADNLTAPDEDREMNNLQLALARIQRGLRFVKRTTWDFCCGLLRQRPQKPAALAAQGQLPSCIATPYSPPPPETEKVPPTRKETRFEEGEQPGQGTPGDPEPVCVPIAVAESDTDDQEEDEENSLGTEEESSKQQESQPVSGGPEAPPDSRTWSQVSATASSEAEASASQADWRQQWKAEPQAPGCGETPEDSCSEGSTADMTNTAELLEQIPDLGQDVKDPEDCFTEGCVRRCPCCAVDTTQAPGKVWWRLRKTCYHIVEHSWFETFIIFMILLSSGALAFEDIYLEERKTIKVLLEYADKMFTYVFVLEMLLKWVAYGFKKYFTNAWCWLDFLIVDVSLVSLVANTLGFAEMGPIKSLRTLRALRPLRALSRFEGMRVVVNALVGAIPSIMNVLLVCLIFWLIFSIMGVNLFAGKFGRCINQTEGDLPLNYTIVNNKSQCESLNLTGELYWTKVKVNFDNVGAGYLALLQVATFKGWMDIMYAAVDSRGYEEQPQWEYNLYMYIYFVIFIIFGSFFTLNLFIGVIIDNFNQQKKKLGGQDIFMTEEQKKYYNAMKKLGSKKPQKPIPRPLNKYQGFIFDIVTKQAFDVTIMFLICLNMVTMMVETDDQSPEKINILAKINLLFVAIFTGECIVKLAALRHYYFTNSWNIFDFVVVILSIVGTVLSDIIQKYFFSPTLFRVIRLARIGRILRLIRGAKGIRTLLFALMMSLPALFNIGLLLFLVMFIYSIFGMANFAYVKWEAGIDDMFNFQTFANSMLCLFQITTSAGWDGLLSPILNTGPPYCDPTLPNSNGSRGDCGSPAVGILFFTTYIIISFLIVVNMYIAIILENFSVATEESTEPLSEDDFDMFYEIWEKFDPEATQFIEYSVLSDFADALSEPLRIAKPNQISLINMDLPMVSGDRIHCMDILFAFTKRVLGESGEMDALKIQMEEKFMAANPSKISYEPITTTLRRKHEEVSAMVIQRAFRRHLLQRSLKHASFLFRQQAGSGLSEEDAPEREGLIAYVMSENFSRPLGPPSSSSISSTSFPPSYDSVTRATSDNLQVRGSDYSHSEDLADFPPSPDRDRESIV

[21] = biological target: Sodium channel protein type 4 subunit alpha (Homo sapiens, UniProt P35499); format: ADME
[22] = Intrinsic clearance in rat liver microsomes at 1 uM after 60 mins in presence of NADPH by LC-MS/MS analysis; format: ADME, microsome; conditions: read-out: CLH
[23] = Plasma concentration in Sprague-Dawley rat spinal nerve ligation model at 30 mg/kg administered as single dose via oral gavage measured after 4 hrs by LC-MS/MS analysis; format: ADME, organism-based
[24] = Plasma concentration in Sprague-Dawley rat spinal nerve ligation model at 100 mg/kg administered as single dose via oral gavage measured after 4 hrs by LC-MS/MS analysis; format: ADME, organism-based
[25] = Unbound plasma concentration in Sprague-Dawley rat spinal nerve ligation model at 30 mg/kg administered as single dose via oral gavage measured after 4 hrs by LC-MS/MS analysis; format: ADME, organism-based; conditions: in vivo
[26] = Unbound plasma concentration in Sprague-Dawley rat spinal nerve ligation model at 100 mg/kg administered as single dose via oral gavage measured after 1 hr by LC-MS/MS analysis; format: ADME, organism-based; conditions: in vivo
[27] = Unbound plasma concentration in Sprague-Dawley rat spinal nerve ligation model at 100 mg/kg administered as single dose via oral gavage measured after 2 hrs by LC-MS/MS analysis; format: ADME, organism-based; conditions: in vivo
[28] = Unbound plasma concentration in Sprague-Dawley rat spinal nerve ligation model at 100 mg/kg administered as single dose via oral gavage measured after 4 hrs by LC-MS/MS analysis; format: ADME, organism-based; conditions: in vivo
[29] = Drug uptake in Sprague-Dawley rat dorsal root ganglion at 100 mg/kg, ig measured after 1.5 hrs by LC-MS/MS analysis; format: ADME, organism-based; conditions: in vivo, po
[30] = Drug metabolism in Sprague-Dawley rat dorsal root ganglion assessed as 4-(((1R,6R)-6-amino-2-(4-fluorophenyl)cyclohex-2-enyl)methoxy)-5-chloro-2-fluoro-N-(thiazol-4-yl)benzenesulfonamide formation at 100 mg/kg, ig measured after 1.5 hrs by LC-MS/MS analysis; format: ADME, organism-based; conditions: in vivo, po
Cytochrome P450 1A2 = biological target: T1, Cytochrome P450 1A2 (Homo sapiens, UniProt P05177)
T1 sequence (P05177 whole entry): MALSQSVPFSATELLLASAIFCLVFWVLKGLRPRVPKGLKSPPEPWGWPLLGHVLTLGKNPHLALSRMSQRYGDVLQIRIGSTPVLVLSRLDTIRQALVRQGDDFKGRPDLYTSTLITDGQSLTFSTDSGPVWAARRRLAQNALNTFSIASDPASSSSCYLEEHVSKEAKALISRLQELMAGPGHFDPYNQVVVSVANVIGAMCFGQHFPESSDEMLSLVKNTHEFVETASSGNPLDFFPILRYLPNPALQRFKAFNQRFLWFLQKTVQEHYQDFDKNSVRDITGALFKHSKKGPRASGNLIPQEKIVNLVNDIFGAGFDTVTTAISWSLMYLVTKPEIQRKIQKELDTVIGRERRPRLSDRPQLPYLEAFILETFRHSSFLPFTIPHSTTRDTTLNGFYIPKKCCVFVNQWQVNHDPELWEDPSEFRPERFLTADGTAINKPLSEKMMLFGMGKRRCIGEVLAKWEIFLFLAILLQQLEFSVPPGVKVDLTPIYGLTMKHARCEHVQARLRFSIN

Cytochrome P450 2C19 = Cytochrome P450 2C19 (Homo sapiens, UniProt P33261)
Sequence of Cytochrome P450 2C19 (P33261 whole entry): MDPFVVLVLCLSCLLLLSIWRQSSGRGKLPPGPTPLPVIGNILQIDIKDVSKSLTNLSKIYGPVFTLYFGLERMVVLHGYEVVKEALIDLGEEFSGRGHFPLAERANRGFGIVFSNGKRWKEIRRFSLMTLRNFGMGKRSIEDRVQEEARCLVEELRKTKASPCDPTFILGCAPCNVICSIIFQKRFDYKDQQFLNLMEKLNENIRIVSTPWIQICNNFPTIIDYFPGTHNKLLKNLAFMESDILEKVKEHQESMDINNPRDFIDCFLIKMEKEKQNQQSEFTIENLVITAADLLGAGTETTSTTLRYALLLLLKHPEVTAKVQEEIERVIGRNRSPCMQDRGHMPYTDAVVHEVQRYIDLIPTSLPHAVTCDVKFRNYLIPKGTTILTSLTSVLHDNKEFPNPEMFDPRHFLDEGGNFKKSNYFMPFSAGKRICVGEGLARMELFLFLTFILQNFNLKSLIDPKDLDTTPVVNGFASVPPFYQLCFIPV

Cytochrome P450 3A4 = Cytochrome P450 3A4 (Homo sapiens, UniProt P08684)
Sequence of Cytochrome P450 3A4 (P08684 whole entry): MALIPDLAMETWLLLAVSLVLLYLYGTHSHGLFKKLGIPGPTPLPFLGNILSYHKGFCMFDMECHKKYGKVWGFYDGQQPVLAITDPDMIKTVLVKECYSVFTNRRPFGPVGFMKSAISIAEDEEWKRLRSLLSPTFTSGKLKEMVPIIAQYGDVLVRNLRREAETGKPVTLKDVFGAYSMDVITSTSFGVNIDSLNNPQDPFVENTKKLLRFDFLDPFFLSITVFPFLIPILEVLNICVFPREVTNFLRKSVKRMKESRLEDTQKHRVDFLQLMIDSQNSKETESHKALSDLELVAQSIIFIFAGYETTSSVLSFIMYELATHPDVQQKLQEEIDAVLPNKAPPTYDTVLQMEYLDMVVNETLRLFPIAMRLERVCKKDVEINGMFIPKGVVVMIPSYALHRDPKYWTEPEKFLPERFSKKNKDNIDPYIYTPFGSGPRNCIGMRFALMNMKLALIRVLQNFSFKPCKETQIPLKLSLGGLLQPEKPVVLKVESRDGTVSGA

physchem [31] = conditions: buffer, pH 7.4
physchem [32] = conditions: buffer, pH 7.4; remark: listed apart in the source

CCN[C@@H]1CCC=C(c2ccc(F)cc2)[C@H]1COc1cc(F)c(S(=O)(=O)Nc2cscn2)cc1Cl.Cl
Vd [1]: 4.63 L/kg
IC50 [2]: 0.034 µM
clearance [3]: 37 mL/min/kg
Vd [4]: 4.65 L/kg
AUC [5]: 3.04 µM·h
C0 [6]: 1910 nM
half-life [7]: 1.56 h
clearance [8]: 37 mL/min/kg
AUC(0-t) [9]: 2.44 µM·h
Cmax [10]: 620 nM
Tmax [11]: 1.67 h
half-life [12]: 2.56 h
AUC(0-t) [13]: 3.04 µM·h
remaining at 1 h, 10 µM [14]: 49.7%
remaining at 1 h, 10 µM [15]: 81.2%
Drug metabolism [16]: Metabolite_Detected
Drug metabolism [17]: Metabolite_Detected
remaining at 1 h, 10 µM [18]: 37.6%
pKa [19]: 6.34 to 9.35
IC50 [20]: > 10 µM
IC50 [21]: 25.2 µM
CLint scaled at 1 µM [22]: 137 mL/min/kg
concentration at 4 h [23]: 1530 nM
concentration at 4 h [24]: 4640 nM
Cp(f) [25]: 54 nM
Cp(f) [26]: 297 nM
Cp(f) [27]: 262 nM
Cp(f) [28]: 163 nM
Drug uptake [29]: 2.6 µM/g
Drug metabolism [30]: 0.5 µM/g
IC50 (Cytochrome P450 1A2): > 50 µM
IC50 (Cytochrome P450 2C19): > 50 µM
IC50 (Cytochrome P450 3A4): 43.4 µM
logD (physchem [31]): 1.79
solubility thermodynamic (physchem [32]): 26.5 µM
